The values that follow come from ChEMBL document CHEMBL3507680, “University of Dundee, Gates Library screen for HepG2 cell viability”.

This data set is described as follows: Human HepG2 cell viability assay in 384 well format. It counts as toxicity, cell-based. The arrangement: dose 125 nL, time 70.5 hour; cytotoxicity at 70.5 h: concentration not given beside the values. As to conditions: HepG2 cells, read-out: Inhibition.
As for `CC(C)(C)c1cnc(CN2CCC(CO)CC2)o1`, the cytotoxicity at 70.5 h is -3.87%.
In the case of `COc1cccc(CNC(=O)CN2CCCC(Cn3cncn3)C2)c1` (configuration not stated) it was -1.72%; in that of `Cc1cccc(C(=O)Nc2ccc(OC3CCN(C)CC3)cc2)c1`, 19.2%.
In the case of `CCc1c(C)nc2cc(C3CCN(Cc4ccc(F)cc4)C3)nn2c1O` (configuration not stated) it was -5.42%.
For the compound `Cc1cc(CN2CCN(S(=O)(=O)c3c(C)c(Cl)cc(C)c3Cl)CC2)on1`, the cytotoxicity at 70.5 h was -9.59%.
With `CCc1nc(CN2CCCN(C(=O)CCCOC)CC2)cs1`, the cytotoxicity at 70.5 h was found to be 2.4%.
With `COc1cnc(N2CCC(c3ncc[nH]3)CC2)nc1` the figure was 17.8%; with `Cc1cc(C)cc(CN2C[C@@H]3OCCN(S(=O)(=O)N(C)C)[C@@H]3C2)c1`, -5.73%.
In the case of `Cc1nc(CN2CCc3c(nc(C4CC4)n3C)C2)nc2ccccc12` it was -5.35%.
In the case of `OCC1(O)CCN(Cc2noc(-c3ccccc3)n2)CC1` it was -6.37%; in that of `CN(Cc1ccccc1Br)C(=O)Cn1nc(-c2ccc(F)cc2)oc1=O`, -8.06%.
On to `CNc1cccc(C2CCCN(C(=O)c3coc(C)n3)C2)n1` (configuration not stated), for which the cytotoxicity at 70.5 h was -0.702%.
In the case of `Cn1ccnc1CN1CCC2(CC1)CC(Nc1ccccn1)CO2` (configuration not stated) it was -2.46%.
`CC(C)c1nnc(NC(=O)Cc2csc(-c3nnc[nH]3)n2)s1`: the cytotoxicity at 70.5 h was 22.4%.
With `CN(C)Cc1cc(=O)n2c(n1)CN(C(=O)c1ccc[nH]1)CCC2` the figure was -2.94%; with `O=C([C@@H]1CCCO1)N1CCN(Cc2ccncc2)c2ncccc2C1`, -0.675%.
`O=C(N1CCCO1)[C@@]12CCO[C@@H]1CCN(Cc1ccc(F)cc1)C2`: the cytotoxicity at 70.5 h is -1.1%.
With `Cc1cccc(C)c1OCCCN1CCC(n2cncn2)CC1` the figure was 3.77%.
In the case of `O=C(N[C@@H]1CN(Cc2cccs2)[C@@H]2CCCO[C@@H]21)C1CC1` it was -10.5%; in that of `CSc1ncccc1C(=O)N1CCC(c2nc3c(C)cccc3[nH]2)CC1`, 12.8%; in that of `CC1=C(C#N)C(=O)NC(=O)/C1=C\c1c(C)nn(-c2ccc(C)cc2)c1O`, -2.65%.
With `CC(C)[C@H]1COC(=O)N1CC(=O)N(C)CCCn1cccn1` the figure was -4.67%; with `CC(C)NC(=O)[C@@H]1CC[C@@H]2[C@@H](CCN2Cc2cn(C)c3ccccc23)O1`, -2.33%.
As to `COc1cccc(C(=O)C2CCCN(c3cc(C#N)ccn3)C2)c1` (configuration not stated), the cytotoxicity at 70.5 h was -10.3%.
In the case of `CCc1noc(CN(CC(=O)N2CCCCC2)c2ccc(C)cc2)n1` it was -1.63%; in that of `CC(C)N(Cc1ccccn1)Cc1nc2c(cnn2C)c(=O)[nH]1`, -6.49%.
With `CCC(Nc1nc(C(C)C)nc2c1cnn2C)c1ccc(O)cc1` (configuration not stated) the figure was 5.5%.
With `CC(O)C(=O)N1CCN(c2ccccc2Cl)C(=O)C1` (configuration not stated) the figure was 17%; with `COc1cccc2c1N(Cc1noc(C3CC3)n1)CCC2`, 39.7%.
With `CCCc1n[nH]c(C2CN(C(=O)c3cc(F)ccc3OC)CCO2)n1` (configuration not stated), the cytotoxicity at 70.5 h is -23.2%.
As to `O=C(C1CCOC1)N1C[C@@H]2CCN(C(=O)c3cscn3)[C@@H]2C1` (some centres not stated), the cytotoxicity at 70.5 h worked out at 14%.
In the case of `O=C(c1cnccn1)N1CCCC(c2cccc(-n3ccnc3)n2)C1` (configuration not stated) it was 11.1%; in that of `CCN1CCO[C@@H]2CN(S(=O)(=O)c3cccs3)CC[C@@H]2C1`, -6.19%.
In the case of `CCCS(=O)(=O)N1CCC2(CCCC(=O)N2C)CC1` it was -9.65%; in that of `COc1ccc(-n2ccc(C(=O)N(CCN(C)C)C(C)C)n2)cc1`, -10.3%; in that of `O=C(C1CC=CC1)N1CCC2(CCN(Cc3ccccn3)C2=O)C1` (configuration not stated), 5.7%.
Consider `c1ccc(CN2CCN(c3ccc4nncn4n3)CC2)nc1`, for which the cytotoxicity at 70.5 h was -9.47%.
In the case of `Cc1ccc(CN2CCC3(CC(=O)N(c4cccc(F)c4)C3)C2)o1` (configuration not stated), the cytotoxicity at 70.5 h is -17.4%.
In the case of `CS(=O)(=O)N1CCC2(CC1)CC(CC(=O)NC1CC1)c1ccccc12` (configuration not stated) it was -20.3%; in that of `Cc1nc(C)c(CCNc2ccc(S(N)(=O)=O)cc2C#N)s1`, -15%; in that of `Cc1nnsc1C(=O)NCc1cccnc1N(C)Cc1ccccc1`, -7.67%.
In the case of `CCN(CC(=O)Nc1c(C)n[nH]c1C)CC(O)c1ccc(C)cc1` (configuration not stated) it was 13.8%; in that of `Cc1nc(C)c(C(=O)Nc2cccc(CN3CCC(CO)CC3)c2)o1`, 0.852%.
In the case of `CNC(=O)[C@@H]1CC[C@@H]2[C@@H](CCN2Cc2ccccc2F)O1` it was -4.13%; in that of `CN1[C@H]2CC[C@@H]1CN(C(=O)c1nnc3n1CCCCC3)CC2`, -9.52%.
Take `Cc1ccccc1CSc1nc(N)cc(N2CCCC(O)C2)n1` (configuration not stated): the cytotoxicity at 70.5 h was 0.482%.
In the case of `CC(C)CN1CCC(C(=O)Nc2cc(C(F)(F)F)c[nH]c2=O)CC1`, the cytotoxicity at 70.5 h was -6.4%.
For the compound `CCn1nc(C)c2nc(C)nc(N(C)Cc3ccco3)c21`, the cytotoxicity at 70.5 h was -21.8%.
In the case of `CC(C)NCC1OCCc2cn(C)nc21` (configuration not stated) it was -6.64%; in that of `O=C(NCC1CCC1)c1cccc(CN2CCS(=O)(=O)CC2)c1`, -16.2%; in that of `Cn1cc(S(=O)(=O)N2CCC(OCCCc3ccccc3)C2)cn1` (configuration not stated), 21.6%.
As to `O=C(NC1CC1)NC(c1cc(F)ccc1F)C1CC1` (configuration not stated), the cytotoxicity at 70.5 h is -5.9%.
In the case of `CCN(Cc1cc(Cl)ccc1OC)Cc1ncnn1CC` it was 1.58%; in that of `CCC1CN(Cc2nc(C(C)C)no2)CCC(=O)N1Cc1ccccc1` (configuration not stated), 22.7%; in that of `CC(O)CN1CCC(CN(C)Cc2cccc(C#N)c2)CC1` (configuration not stated), -2.33%.
In the case of `Cc1nnc([C@@]23CCO[C@@H]2CCN(Cc2nccs2)C3)o1` it was -9.1%.
With `Cc1nn(C)c(C)c1CC(=O)N1CCc2nnc(N(C)C)cc2C1` the figure was -5.78%.
`Cc1cc(C(=O)N2CCS(=O)(=O)CC2)c(C)o1`: the cytotoxicity at 70.5 h was -2.07%.
In the case of `Cc1cc(CN2CCC(CNC(=O)c3noc4c3CCCC4)C2)[nH]n1` (configuration not stated) it was 13.3%; in that of `CC(C)Cc1ncc2c(n1)CN(c1nccc(NC(C)C)n1)C2`, 2.52%; in that of `CC(Cn1ccnc1)NCc1nncn1C1CCCCC1` (configuration not stated), -1.11%.
Take `COCC(=O)N1CCC(C)(c2cc(O)[nH]n2)CC1`: the cytotoxicity at 70.5 h was 0.0821%.
Regarding `O=C(O)c1nnn(Cc2cccc(C(F)(F)F)c2)c1-c1ccncc1`, the cytotoxicity at 70.5 h was -8.89%.
In the case of `O=C(NC(Cc1ccsc1)c1nccs1)C1CCOCC1` (configuration not stated) it was -14.6%.
In the case of `Cc1noc2ncc(C(=O)N3CCCC3c3cnn(C)c3)cc12` (configuration not stated) it was -6.59%; in that of `O=C(NS(=O)(=O)c1cnn(-c2ccccc2F)c1)c1ccco1`, 1.58%; in that of `Cc1ccc(CN2CC[C@@H]3OCCN(Cc4ccncc4)[C@H]3CC2)s1`, -6.32%.
In the case of `CCc1nc(CN2CCCC(NCCn3cncn3)C2)no1` (configuration not stated) it was -8.1%; in that of `NC(=O)CCn1ccc(NCc2cc(F)ccc2Br)n1`, -10.5%; in that of `COc1cc(C#N)ccc1OCC(=O)NS(=O)(=O)c1cccnc1`, -7.29%.
On to `CCn1nc(C)c(CCNC(=O)c2cccc(-n3cccn3)c2)c1C`, for which the cytotoxicity at 70.5 h is -3.23%.
In the case of `Cc1ccc(C(=O)NCCCS(C)(=O)=O)c(=O)[nH]1` it was 15.4%; in that of `CC(C)NC(=O)C1CN(C(=O)NCc2ccccc2)CC12CCOCC2` (configuration not stated), 1.12%.
In the case of `CC(C)CC(CCO)CNC(=O)N1CCC1(C)C` (configuration not stated) it was -1.15%; in that of `CC(C)c1nc(CN(C)Cc2ccc(F)cc2)cs1`, -22.4%.
In the case of `O=C1NCCN(C(=O)CCN2CCCO2)C1c1cccc(F)c1` (configuration not stated) it was 4.41%; in that of `O=C(NCCN1CCCCC1)c1ccn(-c2ccc(F)cc2)n1`, 0.39%; in that of `COc1coc(CN2CCCC(CCc3ccc(F)c(F)c3)C2)cc1=O` (configuration not stated), 15.5%.
For `COCCC1CCCCN1C(=O)c1coc(COc2ccccc2F)n1` (configuration not stated), the cytotoxicity at 70.5 h is -1.11%.
On to `CN(C)C(=O)COC[C@]12COC[C@H]1CN(Cc1ccccc1)C2`, for which the cytotoxicity at 70.5 h is -2.22%.
Consider `CC(C(=O)NCc1ccc(-n2cncn2)nc1)S(C)(=O)=O` (configuration not stated), for which the cytotoxicity at 70.5 h was determined as 0.438%.
With `CN(C)S(=O)(=O)N1C[C@@H]2CC[C@H](C1)N(Cc1ccc3[nH]ccc3c1)C2` the figure was -5.61%.
With `CCc1cc(N(C)Cc2ncc[nH]2)nc(N2CCOCC2)n1` the figure was -15.9%.
In the case of `c1cncc(C2CC3(CCN(c4cnccn4)CC3)c3ccccc32)c1` (configuration not stated) it was -1.15%.
Turning to `O=C(CCc1cccs1)N1CCCC1c1noc(C2CC2)n1` (configuration not stated), the cytotoxicity at 70.5 h was -6.44%.
In the case of `Cc1nc(CN(C)C2CCN(CCc3cnn(C)c3)C2)no1` (configuration not stated) it was 18.2%.
With `COc1cccc(Cn2ncc(N(C)CCc3ccccc3)cc2=O)c1` the figure was -6.35%; with `O=C(Cc1cccnc1)N1CCC2(CC1)CCN(C1CCOCC1)C2`, -3.79%; with `O=C(c1ccc[nH]1)N1CCO[C@H]2CC(COCc3ccccn3)C[C@@H]21` (some centres not stated), 2.76%.
For the compound `OCc1csc(N2CCN(Cc3cccc(F)c3)CC2)n1`, the cytotoxicity at 70.5 h is 22.2%.
In the case of `O=C1CCCN1Cc1noc(-c2ccc(Cl)cc2)n1` it was -6.78%; in that of `Cc1c(Br)cccc1C(=O)NCC1CCCNC1` (configuration not stated), 2.2%.
`Cc1ccc2nc(CN3CCCCC3CCn3cccn3)cn2c1` (configuration not stated): the cytotoxicity at 70.5 h is 6.68%.
Consider `CCN(C(C)=O)C(c1cccnc1)c1cc(C)cc(C)c1` (configuration not stated), for which the cytotoxicity at 70.5 h was 6.16%.
In the case of `Cn1cc(CC2CC(=O)N(Cc3ccccc3OC(F)F)C2=O)cn1` (configuration not stated) it was -0.223%; in that of `COc1cc(N2C[C@@H]3COC[C@@H](Cc4nc(C)no4)[C@@H]3C2)ncn1`, -7.51%.
In the case of `O=c1[nH]ncc(NCCOc2ccc3c(c2)OCO3)c1Cl` it was -8.71%.
